The values below are quoted from earlier work in US9057089B2, “Methods for natural product optimization” (The University of Wyoming, priority 2008, dated 2015).

One series concerns peptidoglycan synthesis. As to conditions: metabolic labeling.
For series [1], the system named is transpeptidases (penicillin binding proteins, PBPs).
For series [2] the following is noted: human clinical trials.
The conditions of series [3]: in vivo.
The subject of series [4] is fungi, protozoa, or eukaryotic cells.
The test system of a further series is RpoB-V1275F mutant. The note with it: rpoB Val→Phe substitution (position 1275).

Bounds are passed on as bounds.

Take `CCCC1OC(=O)C(C)CC(C)CCCCC(=O)CCCC(CC)/C=C/C=C(\COC)CCC(O)C(O)CC(O)CNC1=O` (centres unmarked) [Antibiotic TA, myxovirescin]: the peptidoglycan synthesis result in the series with peptidoglycan synthesis is given as “blocks peptidoglycan synthesis”. Moreover, the “inhibition of final cross-linking step catalyzed by transpeptidases” value in series [1] is “does not inhibit”. Also, the “therapeutic effect in periodontal diseases” value in series [2] was “effective therapeutic”. The “three indices (plaque, gingival, and bleeding)” value in series [2] (only two treatments) is on record as “significantly improved”. Besides, the safety entry in series [3] is given as “safe”. In addition, in series [4], the “activity on fungi, protozoa, or eukaryotic cells” value is “not active”. For the same molecule, the “effect of sera on activity” value in the series with growing E. coli cells (sera) was “not inhibited by sera”. Besides, the “growing E. coli cells killed” value with growing E. coli cells (within 30 minutes at 2 μg/ml) is listed as 99%.

Regarding `C/C=C/C/C=C(\C)C(O)CC/C(C)=C/C=C(\C)C(=O)c1c(O)cc([C@H](C)CC/C=C/NC(=O)OC)oc1=O` (some centres unmarked) [Cor, corallopyronin], the “increase of antibiotic MIC values relative to wild type cells” value with RpoB-V1275F mutant is reported as above 8 fold.

Regarding `C/C(=C\Cc1ccccc1)CCC(=O)C[C@H]1C[C@H](O)C/C(C)=C/C/C=C/C/C(CC(=O)O)=C\C(=O)O1` [Rip, ripostatin], the “increase of antibiotic MIC values relative to wild type cells” value in the series on RpoB-V1275F mutant is on record as above 16 fold.

As for myxopyronin, the “increase of antibiotic MIC values relative to wild type cells” value with RpoB-V1275F mutant is given as above 32 fold.
